According to patent US8754057B2, “Inhibition of apoptosis-specific eIF-5A(eIF-5A1″) with antisense oligonucleotides and siRNA as anti-inflammatory therapeutics” (Senesco Technologies, Inc., priority 2003, dated 2014):
*1 amine or outer side, *2 acyl side, *3 side chain or, on linkers, in order; H or OH if unused. Where a SMILES comes first, the peptide text is derived from it. Bridges are numbered along the chain shown (N, C = ends). Roman numbers before positions name the chains, in order. [ ]: non-standard residue; d: D form. Actinocin(9to1) = Cc1c2oc3c(C)ccc(C(=O)[*:1])c3nc-2c(C(=O)[*:2])c(N)c1=O; NMeV = CN[C@H](C(=O)O)C(C)C; Sar = CNCC(=O)O

Experiments:
Type in all cases: cell-based, human
RKO cells = assay: Western blots of RKO cells treated with Actinomycin D; details: 0.25 μg/ml Actinomycin D for 0, 3, 7, 24, and 48 hours
Experimental: FIG. 43 provides Western blots of protein extracted from RKO cells treated with 0.25 μg/ml Actinomycin D for 0, 3, 7, 24, and 48 hours. The top panel depicts a Western blot using anti-p53 as the primary antibody. The middle panel depicts a Western blot using anti-apoptosis-specific eIF-5A as the primary antibody.

[1] = tested on: lamina cribrosa cell line #506; details: 48 hours; Hoescht staining
Experimental: FIG. 83 is a graph showing percent apoptosis of lamina cribrosa cell line #506 in response to treatment with camptothecin and TNF-α. Lamina cribrosa cell line #506 cells were seeded at 40,000 cells per well onto an 8-well culture slide. Three days later the confluent LC cells were treated with either 10 ng/ml TNF-α, 50 μM camptothecin, or 10 ng/ml TNF-α plus 50 μM camptothecin. An equivalent volume of DMSO, a vehicle control for camptothecin, was added to the untreated control cells. The cells were stained with Hoescht 33258 48 hours after treatment and viewed by fluorescence microscopy using a UV filter. Cells with brightly stained condensed or fragmented nuclei were counted as apoptotic.
Apoptosis was induced in lamina cribrosa cells using a combination of 50 μM camptothecin (Sigma) and 10 ng/ml TNF-α (Leinco Technologies).
Since TNF-α is believed to play an important role during the glaucomatous process, the susceptibility of LC cells to the cytotoxic effects of TNF-α was examined. Confluent LC cells were exposed to either camptothecin, TNF-α, or a combination of camptothecin and TNF-α for 48 hours (FIG. 83).

[2] = tested on: apoptosis-specific eIF-5A; assay: Western blot of HT-29 cells treated with IFN gamma; details: at 8 hours
Experimental: FIG. 81 is a western blot of HT-29 cells treated with IFN gamma for 8 and 24 hours.
Priming the cells with interferon gamma prior to TNF treatment causes the cells to produce more IL-8 than either treatment alone. This may be due to the known upregulation of the TNF receptor 1 in response to interferon, so ‘priming’ the cells with interferon allows them to respond to TNF better since the cells have more receptors. siRNA against apoptosis-specific eIF-5A had no effect on IL-8 production in response to TNF alone (previous experiment) however, the siRNA blocked almost all IL-8 produced in response to interferon as well as a significant amount of the IL-8 produced as a result of the combined treatment of interferon and TNF. […] FIG. 81 is a western showing up-regulation (4 fold at 8 hours) of apoptosis-specific eIF-5A in response to interferon gamma in HT-29 cells.

[3] = tested on: lamina cribrosa cell line #506; assay: Hoescht staining apoptosis of siRNA-transfected lamina cribrosa cells treated with TNF-α and camptothecin; details: LC #506, 72 h after siRNA transfection, 24 h 10 ng/ml TNF-α plus 50 μM camptothecin
Experimental: Lamina cribrosa cell line #506 cells were seeded at 7500 cells per well onto an 8-well culture slide. Three days later the LC cells were transfected with either GAPDH siRNA, apoptosis-specific eIF-5A siRNAs #1-4 (SEQ ID NO:30-33), or control siRNA #5 (SEQ ID NO:34). 72 hours after transfection, the transfected cells were treated with 10 ng/ml TNF-α plus 50 μM camptothecin. Twenty-four hours later the cells were stained with Hoescht 33258 and viewed by fluorescence microscopy using a UV filter. Cells with brightly stained condensed or fragmented nuclei were counted as apoptotic. This graph represents the average of n=4 independent experiments.
Following transfection, RKO and lamina cribrosa cells were incubated for 72 hours prior to collection of cellular extract for Western blot analysis. In order to determine the effectiveness of the siRNAs directed against apoptosis-specific eIF-5A to block apoptosis, lamina cribrosa cells were treated with 50 μM of camptothecin (Sigma) and 10 ng/ml of TNF-α (Leinco Technologies) to induce apoptosis either 48 or 72 hours after transfection. The cells were stained with Hoescht either 24 or 48 hours later in order to determine the percentage of cells undergoing apoptosis.
Small inhibitory RNAs (siRNAs) directed against human apoptosis-specific eIF-5A were used to specifically suppress expression of eIF5A in lamina cribrosa cells. Six siRNAs were generated by in vitro transcription using the Silencer™ siRNA Construction Kit (Ambion Inc.), Four siRNAs were generated against human apoptosis-specific eIF-5A (siRNAs #1 to #4). […] The siRNAs were generated according to the manufacturer's protocol. The eIF5A and control siRNA targets had the following sequences: siRNA #1 5′ […] 3′ (SEQ ID NO: 81); siRNA #2 5′ […] 3′ (SEQ ID NO: 82); siRNA #3 5′ […] 3′ (SEQ ID NO: 83); siRNA #4 5′ […] 3′ (SEQ ID NO: 84); siRNA #5′ […] 3′ (SEQ ID NO: 85). Lamina cribrosa cells were transfected with siRNA using LipofectAMINE 2000.
Lamina cribrosa cells were transfected when cell confluence was at 40 to 70% and were generally seeded onto 8-well culture slides at 7500 cells per well three days prior to transfection. Transfection medium sufficient for one well of an 8-well culture slide was prepared by diluting 25.5 proles of siRNA to a final volume of 21.2 μl in Opti-Mem (Sigma). 0.425 μl of Lipofectamine 2000 was diluted to a final volume of 21.2 μl in Opti-Mem and incubated for 7 to 10 minutes at room temperature. The diluted Lipofectamine 2000 mixture was then added to the diluted siRNA mixture and incubated together at room temperature for 20 to 30 minutes, The cells were washed once with serum-free media before adding 135 μl of serum-free media to the cells and overlaying 42.4 μl of transfection medium. […]

[4] = tested on: lamina cribrosa cell line #506; assay: TUNEL labeling of siRNA-transfected LC cells treated with TNF-α and camptothecin; details: LC #506, TNF-α and camptothecin 24 h
Experimental: Lamina cribrosa cell line #506 cells were seeded at 7500 cells per well onto an 8-well culture slide. Three days later the LC cells were transfected with either apoptosis-specific eIF-5A siRNA #1 (SEQ ID NO:30) or control siRNA #5 (SEQ ID NO:34). 72 hours after transfection, the transfected cells were treated with 10 ng/ml TNF-α plus 50 μM camptothecin. Twenty-four hours later the cells were stained with Hoescht 33258 and DNA fragmentation was evaluated in situ using the terminal deoxynucleotidyl transferase-mediated dUTP-digoxigenin nick end labeling (TUNEL) method. Panel A represents the slide observed by fluorescence microscopy using a fluorescein filter to visualize TUNEL-labeling of the fragmented DNA of apoptotic cells. Panel B represents the same slide observed by through a UV filter to visualize the Hoescht-stained nuclei. The results are representative of two independent experiments. All pictures were taken at 400 times magnification.
Transfected cells that had been treated with TNF-α and camptothecin for 24 hours were stained with Hoescht 33258 in order to determine the percentage of cells undergoing apoptosis. Briefly, cells were fixed with a 3:1 mixture of absolute methanol and glacial acetic acid and then incubated with Hoescht stain (0.5 μg/ml Hoescht 33258 in PBS). After a 10 minute incubation in the dark, the staining solution was discarded, the chambers separating the wells of the culture slide were removed, and the slide was washed 3 times for 1 minute with deionized water. After washing, a few drops of Mcllvaine's buffer (0.021 M citric acid, 0.058 M Na2HPO4.7H2O; pH 5.6) was added to the cells and overlaid with a coverslip. The stained cells were viewed under a fluorescent microscope using a UV filter. Cells with brightly stained or fragmented nuclei were scored as apoptotic. A minimum of 200 cells were counted per well. The DeadEnd™ Fluorometric TUNEL (Promega) was also used to detect the DNA fragmentation that is a characteristic feature of apoptotic cells. Following Hoescht staining, the culture slide was washed briefly with distilled water, and further washed by immersing the slide twice for 5 minutes in PBS (137 mM NaCl, 2.68 mM KCl, 1.47 mM KH2PO4, 8.1 mM Na2HPO4), blotting the slide on paper towel between washes. The cells were permeabilized by immersing them in 0.2% Triton X-100 in PBS for 5 minutes. The cells were then washed again by immersing the slide twice for 5 minutes in PBS and blotting the slide on paper towel between washes. 25 μl of equilibration buffer [200 mM potassium cacodylate (pH 6.6), 25 mM. Tris-HCl (pH 6.6), 0.2 mM dithiothreitol, 0.25 mg/ml bovine serum albumin, and 2.5 mM cobalt chloride] was added per well and incubated for 5 to 10 minutes. […] Any cells with brightly stained or fragmented nuclei were scored as apoptotic. […]

## Cc1c2oc3c(C)ccc(C(=O)N[C@@H]4C(=O)N[C@H](C(C)C)C(=O)N5CCC[C@H]5C(=O)N(C)CC(=O)N(C)[C@@H](C(C)C)C(=O)O[C@@H]4C)c3nc-2c(C(=O)N[C@@H]2C(=O)N[C@H](C(C)C)C(=O)N3CCC[C@H]3C(=O)N(C)CC(=O)N(C)[C@@H](C(C)C)C(=O)O[C@@H]2C)c(N)c1=O [Actinomycin D] (I: T[dV]P[Sar][NMeV] / II: T[dV]P[Sar][NMeV]; ester I:1-I:C, II:1-II:C; linker I:N-II:N via Actinocin(9to1))
RKO cells
  apoptosis-specific eIF-5A protein: upregulated
  p53 protein: upregulated

## TNF-α
[1]
  cytotoxic to LC cells: not cytotoxic

## interferon gamma: interferon gamma (Roche Diagnostics)
[2]
  up-regulation of apoptosis-specific eIF-5A: 4 fold

## siRNA #2: siRNA against human apoptosis-specific eIF-5A (SEQ ID NO:31); target 5′ AAGATCGTCGAGATGTCTACT 3′ (SEQ ID NO: 82) (AAGAUCGUCGAGAUGUCUACUUC; unmodified RNA; listed as Homo sapiens)
[3]
  reduce apoptosis of LC cells: 35%

## siRNA #3: siRNA against human apoptosis-specific eIF-5A (SEQ ID NO:32); target 5′ AAGGTCCATCTGGTTGGTATT 3′ (SEQ ID NO: 83) (AAGGUCCAUCUGGUUGGUAUUGA; unmodified RNA; listed as Homo sapiens)
[3]
  reduce apoptosis of LC cells: 50%

## siRNA #4: siRNA against human apoptosis-specific eIF-5A (SEQ ID NO:33); target 5′ AAGCTGGACTCCTCCTACACA 3′ (SEQ ID NO: 84) (AAGCTGGACTCCTCCTACACAAT; listed as DNA, chemistry not fully specified; listed as Homo sapiens)
[3]
  reduce apoptosis of LC cells: 69%
[4]; TUNEL
  protection from apoptosis relative to the control siRNA: greater than 60%

## siRNA #5: control siRNA (SEQ ID NO:34) with the reverse sequence of siRNA #1; does not target eIF5A (AAAGTCGACCTTCAGTAAGGATT; listed as DNA, chemistry not fully specified; listed as Homo sapiens)
[4]; 3 days after transfection
  LC cells positive for TUNEL staining: 46%
